system: Human platelet aggregation caused by ADP; experiment: Inhibition of ADP-induced platelet aggregation (Mimic-human PRP); assay type: cell-based; details: 20 μM ADP, human platelet concentrate diluted with PPP, absorption at 595 nm
How it was run: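 Human PRP diluted with PPP to 3–4×10^8 platelets/mL was preincubated 20 min at room temperature with compound (0.01–30 μM, DMSO), then stimulated with 20 μM ADP. Aggregation read as A595 increase at 3 min versus 0 and 20 μM ADP controls; Ki from sigmoidal non-linear regression.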

Which Ki does the source give for CCCc1cc2c(N3CCn4c(nnc4C(F)(F)F)C3)nc(N3CC[C@H](NC=O)C3)nc2s1 [Example 9-21, N-{(S)-1-[6-Propyl-4-(3-trifluoromethyl-5,6-dihydro-8H-[1,2,4]triazolo[4,3-a]pyrazin-7-yl)-thieno[2,3-d]pyrimidin-2-yl]-pyrrolidin-3-yl}-formamide] here?
Its Ki is 6 nM.

Which Ki does the source give for CCCc1cc2c(N3CCn4c(nnc4C(F)(F)F)C3)nc(N3CC[C@@H](NC=O)C3)nc2s1 [Example 9-22, N-{(R)-1-[6-Propyl-4-(3-trifluoromethyl-5,6-dihydro-8H-[1,2,4]triazolo[4,3-a]pyrazin-7-yl)-thieno[2,3-d]pyrimidin-2-yl]-pyrrolidin-3-yl}-formamide] here?
Its Ki is 15 nM.

CCCc1cc2c(N3CCn4c(nnc4C(F)(F)F)C3)nc(OCCNC=O)nc2s1 [Example 9-23, N-{2-[6-Propyl-4-(3-trifluoromethyl-5,6-dihydro-8H-[1,2,4]triazolo[4,3-a]pyrazin-7-yl)-thieno[2,3-d]pyrimidin-2-yloxy]-ethyl}-formamide] was tested. Which Ki did it give?
The Ki was 3 nM.

With CCCc1cc2c(N3CCn4c(nnc4C(F)(F)F)C3)nc(N3CC[C@H](N(C)C(C)=O)C3)nc2s1 [Example 9-24, N-Methyl-N-{(S)-1-[6-propyl-4-(3-trifluoromethyl-5,6-dihydro-8H-[1,2,4]triazolo[4,3-a]pyrazin-7-yl)-thieno[2,3-d]pyrimidin-2-yl]-pyrrolidin-3-yl}-acetamide] as the molecule, how does the Ki read?
The Ki was 310 nM.

CCCc1cc2c(N3CCn4c(nnc4C(F)(F)F)C3)nc(OCCNC(=O)NC)nc2s1 [Example 9-25, 1-Methyl-3-{2-[6-propyl-4-(3-trifluoromethyl-5,6-dihydro-8H-[1,2,4]triazolo[4,3-a]pyrazin-7-yl)-thieno[2,3-d]pyrimidin-2-yloxy]-ethyl}-urea] was tested. Which Ki did it give?
Its Ki is 5.7 nM.

With CCCc1cc2c(N3CCn4c(nnc4C(F)(F)F)C3)nc(OCCNC(=O)N3CCCC3)nc2s1 [Example 9-26, Pyrrolidine-1-carboxylic Acid {2-[6-propyl-4-(3-trifluoromethyl-5,6-dihydro-8H-[1,2,4]triazolo[4,3-a]pyrazin-7-yl)-thieno[2,3-d]pyrimidin-2-yloxy]-ethyl}-amide] as the molecule, how does the Ki read?
The Ki was 16 nM.

For CCCc1cc2c(N3CCn4c(nnc4C(F)(F)F)C3)nc(OCCNC(N)=O)nc2s1 [Example 9-27, {2-[6-Propyl-4-(3-trifluoromethyl-5,6-dihydro-8H-[1,2,4]triazolo[4,3-a]pyrazin-7-yl)-thieno[2,3-d]pyrimidin-2-yloxy]-ethyl}-urea], which Ki is on record?
Its Ki is 6.5 nM.

How did the Ki turn out when CCCc1cc2c(N3CCn4c(nnc4C(F)(F)F)C3)nc(N3CC(O)C(NC=O)C3)nc2s1 (centres unmarked) [Example 9-28, N-{4-Hydroxy-1-[6-propyl-4-(3-trifluoromethyl-5,6-dihydro-8H-[1,2,4]triazolo[4,3-a]pyrazin-7-yl)-thieno[2,3-d]pyrimidin-2-yl]-pyrrolidin-3-yl}-formamide] was run?
Its Ki is 0.16 nM.

For CCCc1cc2c(N3CCn4c(nnc4C(F)(F)F)C3)nc(N3CC(Cl)C(NC(C)=O)C3)nc2s1 (centres unmarked) [Example 9-29, N-{4-Chloro-1-[6-propyl-4-(3-trifluoromethyl-5,6-dihydro-8H-[1,2,4]triazolo[4,3-a]pyrazin-7-yl)-thieno[2,3-d]pyrimidin-2-yl]-pyrrolidin-3-yl}-acetamide], which Ki is on record?
The Ki was 2.2 nM.

With CCCc1cc2c(N3CCn4c(nnc4C(F)(F)F)C3)nc(N3CC4N=C(C)OC4C3)nc2s1 (centres unmarked) [Example 9-30, 7-[2-(2-Methyl-3a,4,6,6a-tetrahydro-pyrrolo[3,4-d]oxazol-5-yl)-6-propyl-thieno[2,3-d]pyrimidin-4-yl]-3-trifluoromethyl-5,6,7,8-tetrahydro-[1,2,4]triazolo[4,3-a]pyrazine] as the molecule, how does the Ki read?
Its Ki is 0.3 nM.

Which Ki does the source give for CCCc1cc2c(N3CCn4c(nnc4C(F)(F)F)C3)nc(NCCNC=O)nc2s1 [Example 9-31, N-{2-[6-Propyl-4-(3-trifluoromethyl-5,6-dihydro-8H-[1,2,4]triazolo[4,3-a]pyrazin-7-yl)-thieno[2,3-d]pyrimidin-2-ylamino]-ethyl}-formamide] here?
The Ki was 87 nM.

How did the Ki turn out when CCCc1cc2c(N3CCn4c(nnc4C(F)(F)F)C3)nc(NCCNC(=O)OC)nc2s1 [Example 9-32, {2-[6-Propyl-4-(3-trifluoromethyl-5,6-dihydro-8H-[1,2,4]triazolo[4,3-a]pyrazin-7-yl)-thieno[2,3-d]pyrimidin-2-ylamino]-ethyl}-carbamic acid methyl ester] was run?
The Ki was 29 nM.

CCCc1cc2c(N3CCn4c(nnc4C(F)(F)F)C3)nc(N3CCNC3=O)nc2s1 [Example 9-33, 1-[6-Propyl-4-(3-trifluoromethyl-5,6-dihydro-8H-[1,2,4]triazolo[4,3-a]pyrazin-7-yl)-thieno[2,3-d]pyrimidin-2-yl]-imidazolidin-2-one] was tested. Which Ki did it give?
The Ki was 41 nM.

Which Ki does the source give for CCCc1cc2c(N3CCn4c(nnc4C(F)(F)F)C3)nc(N3CC4N=COC4C3)nc2s1 (centres unmarked) [Example 9-34, 7-[6-Propyl-2-(3a,4,6,6a-tetrahydro-pyrrolo[3,4-d]oxazol-5-yl)-thieno[2,3-d]pyrimidin-4-yl]-3-trifluoromethyl-5,6,7,8-tetrahydro-[1,2,4]triazolo[4,3-a]pyrazine] here?
Its Ki is 15 nM.

For CCCc1cc2c(N3CCn4c(nnc4C(F)(F)F)C3)nc(OC)nc2s1 [Example 9-35, 7-(2-Methoxy-6-propyl-thieno[2,3-d]pyrimidin-4-yl)-3-trifluoromethyl-5,6,7,8-tetrahydro-[1,2,4]triazolo[4,3-a]pyrazine], which Ki is on record?
The Ki was 220 nM.

Which Ki does the source give for CCCc1cc2c(N3CCn4c(nnc4C(F)(F)F)C3)nc(OCC)nc2s1 [Example 9-36, 7-(2-Ethoxy-6-propyl-thieno[2,3-d]pyrimidin-4-yl)-3-trifluoromethyl-5,6,7,8-tetrahydro-[1,2,4]triazolo[4,3-a]pyrazine] here?
Its Ki is 170 nM.

Which Ki does the source give for CCCc1cc2c(N3CCn4c(nnc4C(F)(F)F)C3)nc(N=[N+]=[N-])nc2s1 [Example 9-37, 7-(2-Azido-6-propyl-thieno[2,3-d]pyrimidin-4-yl)-3-trifluoromethyl-5,6,7,8-tetrahydro-[1,2,4]triazolo[4,3-a]pyrazine] here?
Its Ki is 200 nM.

CCCc1cc2c(N3CCn4c(nnc4C(F)(F)F)C3)nc(N)nc2s1 [Example 9-38, 6-Propyl-4-(3-trifluoromethyl-5,6-dihydro-8H-[1,2,4]triazolo[4,3-a]pyrazin-7-yl)-thieno[2,3-d]pyrimidin-2-ylamine] was tested. Which Ki did it give?
Its Ki is 49 nM.

With CCCc1cc2c(N3CCn4c(nnc4C(F)(F)F)C3)nc(N(C)CCNC(C)=O)nc2s1 [Example 9-40, N-(2-{Methyl-[6-propyl-4-(3-trifluoromethyl-5,6-dihydro-8H-[1,2,4]triazolo[4,3-a]pyrazin-7-yl)-thieno[2,3-d]pyrimidin-2-yl]-amino}-ethyl)-acetamide] as the molecule, how does the Ki read?
Its Ki is 22 nM.

How did the Ki turn out when CCCc1cc2c(N3CCn4c(nnc4C(F)(F)F)C3)nc(N(C)CCNC=O)nc2s1 [Example 9-41, N-(2-{Methyl-[6-propyl-4-(3-trifluoromethyl-5,6-dihydro-8H-[1,2,4]triazolo[4,3-a]pyrazin-7-yl)-thieno[2,3-d]pyrimidin-2-yl]-amino}-ethyl)-formamide] was run?
The Ki was 37 nM.

Which Ki does the source give for CCCc1cc2c(N3CCn4c(nnc4C(F)(F)F)C3)nc(N(C)CCNC(=O)OC)nc2s1 [Example 9-42, (2-{Methyl-[6-propyl-4-(3-trifluoromethyl-5,6-dihydro-8H-[1,2,4]triazolo[4,3-a]pyrazin-7-yl)-thieno[2,3-d]pyrimidin-2-yl]-amino}-ethyl)-carbamic acid methyl ester] here?
The Ki was 27 nM.

CCCc1cc2c(N3CCn4c(nnc4C(F)(F)F)C3)nc(-n3cncn3)nc2s1 [Example 9-43, 7-(6-Propyl-2-[1,2,4]triazol-1-yl-thieno[2,3-d]pyrimidin-4-yl)-3-trifluoromethyl-5,6,7,8-tetrahydro-[1,2,4]triazolo[4,3-a]pyrazine] was tested. Which Ki did it give?
Its Ki is 330 nM.

For CCCc1cc2c(N3CCn4c(nnc4C(F)(F)F)C3)nc(OCCn3cncn3)nc2s1 [Example 9-44, 7-[6-Propyl-2-(2-[1,2,4]triazol-1-yl-ethoxy)-thieno[2,3-d]pyrimidin-4-yl]-3-trifluoromethyl-5,6,7,8-tetrahydro-[1,2,4]triazolo[4,3-a]pyrazine], which Ki is on record?
The Ki was 9.8 nM.

How did the Ki turn out when CCCc1cc2c(N3CCn4c(nnc4C(F)(F)F)C3)nc(NCCc3c[nH]cn3)nc2s1 [Example 9-45, [2-(1H-Imidazol-4-yl)-ethyl]-[6-propyl-4-(3-trifluoromethyl-5,6-dihydro-8H-[1,2,4]triazolo[4,3-a]pyrazin-7-yl)-thieno[2,3-d]pyrimidin-2-yl]-amine] was run?
The Ki was 38 nM.

For CCCc1cc2c(N3CCn4c(nnc4C(F)(F)F)C3)nc(-n3cnc(CCN)c3)nc2s1 [Example 9-46, 2-{1-[6-Propyl-4-(3-trifluoromethyl-5,6-dihydro-8H-[1,2,4]triazolo[4,3-a]pyrazin-7-yl)-thieno[2,3-d]pyrimidin-2-yl]-1H-imidazol-4-yl}-ethylamine], which Ki is on record?
Its Ki is 530 nM.

CCCc1cc2c(N3CCn4c(nnc4C(F)(F)F)C3)nc(-n3ccc([N+](=O)[O-])c3)nc2s1 [Example 9-47, 7-[2-(3-Nitro-pyrrole-1-yl)-6-propyl-thieno[2,3-d]pyrimidin-4-yl]-3-trifluoromethyl-5,6,7,8-tetrahydro-[1,2,4]triazolo[4,3-a]pyrazine] was tested. Which Ki did it give?
The Ki was 3900 nM.

How did the Ki turn out when CCCc1cc2c(N3CCn4c(nnc4C(F)(F)F)C3)nc(N(CCO)c3cnccn3)nc2s1 [Example 9-50, 2-{[6-Propyl-4-(3-trifluoromethyl-5,6-dihydro-8H-[1,2,4]triazolo[4,3-a]pyrazin-7-yl)-thieno[2,3-d]pyrimidin-2-yl]-pyrazin-2-yl-amino}-ethanol] was run?
Its Ki is 230 nM.

Which Ki does the source give for CCCc1cc2c(N3CCn4c(nnc4C(F)(F)F)C3)nc(N3CC(=O)N(CCO)C3=O)nc2s1 [Example 9-51, 3-(2-Hydroxy-ethyl)-1-[6-propyl-4-(3-trifluoromethyl-5,6-dihydro-8H-[1,2,4]triazolo[4,3-a]pyrazin-7-yl)-thieno[2,3-d]pyrimidin-2-yl]-imidazolidine-2,4-dione] here?
The Ki was 190 nM.

CCCc1cc2c(N3CCn4c(nnc4C(F)(F)F)C3)nc(-n3ccc(N)n3)nc2s1 [Example 9-52, 1-[6-Propyl-4-(3-trifluoromethyl-5,6-dihydro-8H-[1,2,4]triazolo[4,3-a]pyrazin-7-yl)-thieno[2,3-d]pyrimidin-2-yl]-1H-pyrazol-3-ylamine] was tested. Which Ki did it give?
Its Ki is 16 nM.
